`CCCCc1nc2nncc-2c2nc(-c3ccc(O)cc3)[nH]n12` [Example 12, 5-n-butyl-2-(4-hydroxyphenyl)pyrazolo[4,3-e]-1,2,4-triazolo[1,5-c]pyrimidine] gave a melting point of over 280 °C.
With `CCc1nc2nncc-2c2nc(-c3ccc(Cl)cc3)[nH]n12` [Example 64, 2-(4-chlorophenyl)-5-ethylpyrazolo[4,3-e]-1,2,4-triazolo[1,5-c]pyrimidine] the melting point was over 280 °C.
Compound `CCc1nc2nncc-2c2nc(-c3ccc(C)cc3)[nH]n12` [Example 65, 5-ethyl-2-(4-methylphenyl)pyrazolo[4,3-e]-1,2,4-triazolo[1,5-c]pyrimidine] has a melting point of over 280 °C.

First: CCCCc1nc2nncc-2c2nc(-c3ccc(OCCC)cc3)[nH]n12 [Example 14, 5-n-butyl-2-(4-propoxyphenyl)pyrazolo[4,3-e]-1,2,4-triazolo[1,5-c]pyrimidine]
Second: CCCCc1nc2nncc-2c2nc(-c3ccc(SC)cc3)[nH]n12 [Example 56, 5-n-butyl-2-(4-methylthiophenyl)pyrazolo[4,3-e]-1,2,4-triazolo[1,5-c]pyrimidine]
The melting point of the first is lower: 191 to 192 °C for the first, 204 to 205 °C for the second.

First: CCCCc1nc2nncc-2c2nc(-c3cc(OC)c(OC)c(OC)c3)[nH]n12 [Example 15, 5-n-butyl-2-(3,4,5-trimethoxyphenyl)pyrazolo[4,3-e]-1,2,4-triazolo[1,5-c]pyrimidine]
Second: CCCCc1nc2nncc-2c2nc(-c3ccccc3OC)[nH]n12 [Example 53, 5-n-butyl-2-(2-methoxyphenyl)pyrazolo[4,3-e]-1,2,4-triazolo[1,5-c]pyrimidine]
The melting point of the first is higher: 259 to 262 °C for the first, 157 to 160 °C for the second.

First: CCCCc1nc2nncc-2c2nc(-c3ccc([N+](=O)[O-])cc3)[nH]n12 [Example 17, 5-n-butyl-2-(4-nitrophenyl)pyrazolo[4,3-e]-1,2,4-triazolo[1,5-c]pyrimidine]
Second: CCCc1nc2nncc-2c2nc(-c3ccc(C)cc3)[nH]n12 [Example 60, 2-(4-methylphenyl)-5-n-propylpyrazolo[4,3-e]-1,2,4-triazolo[1,5-c]pyrimidine]
The melting point of the first is higher: 279 to 280.5 °C for the first, 274 to 275 °C for the second.

First: CCCCc1nc2nncc-2c2nc(-c3cccnc3)[nH]n12 [Example 18, 5-n-butyl-2-(3-pyridyl)pyrazolo[4,3-e]-1,2,4-triazolo[1,5-c]pyrimidine]
Second: CCCCc1nc2nncc-2c2nc(-c3cccs3)[nH]n12 [Example 20, 5-n-butyl-2-(2-thienyl)pyrazolo[4,3-e]-1,2,4-triazolo[1,5-c]pyrimidine]
The melting point of the first is higher: 217 to 219 °C for the first, 214 to 216 °C for the second.

First: CCCCc1nc2nncc-2c2nc(-c3ccco3)[nH]n12 [Example 19, 5-n-butyl-2-(2-furyl)pyrazolo[4,3-e]-1,2,4-triazolo[1,5-c]pyrimidine]
Second: CCCCCCc1nc2nncc-2c2nc(-c3ccccc3)[nH]n12 [Example 88, 5-n-hexyl-2-phenylpyrazolo[4,3-e]-1,2,4-triazolo[1,5-c]pyrimidine]
The melting point of the first is higher: 253 to 254.5 °C for the first, 207 to 208 °C for the second.

First: CCCc1nc2ccccc2c2nc(-c3ccccc3)nn12 [Example 21, 2-phenyl-5-propyl-1,2,4-triazolo[1,5-c]quinazoline]
Second: CCCc1nc2ccc(Cl)cc2c2nc(-c3ccccc3)nn12 [Example 73, 9-chloro-2-phenyl-5-n-propyl-1,2,4-triazolo[1,5-c]quinazoline]
The melting point of the first is higher: 143 to 144 °C for the first, 140.5 to 141.5 °C for the second.

First: CCCCc1nc2ccccc2c2nc(-c3ccccc3Cl)nn12 [Example 24, 5-n-butyl-2-(2-chlorophenyl)-1,2,4-triazolo[1,5-c]quinazoline]
Second: CCCCc1nc2ccccc2c2nc(-c3ccccc3OC)nn12 [Example 33, 5-n-butyl-2-(2-methoxyphenyl)-1,2,4-triazolo[1,5-c]quinazoline]
The melting point of the first is lower: 104.5 to 105.55 °C for the first, 106.5 to 107.5 °C for the second.

First: CCCCc1nc2ccccc2c2nc(-c3cccc(Cl)c3)nn12 [Example 25, 5-n-butyl-2-(3-chlorophenyl)-1,2,4-triazolo[1,5-c]quinazoline]
Second: CCCCc1nc2ccccc2c2nc(-c3cccc(OC)c3)nn12 [Example 57, 5-n-butyl-2-(3-methoxyphenyl)-1,2,4-triazolo[1,5-c]quinazoline]
The melting point of the first is higher: 129 to 131 °C for the first, 118 to 119 °C for the second.

First: CCCCc1nc2ccccc2c2nc(-c3ccc(C(C)(C)C)cc3)nn12 [Example 29, 5-n-butyl-2-(4-t-butylphenyl)-1,2,4-triazolo[1,5-c]quinazoline]
Second: CCCCc1nc2ccccc2c2nc(-c3ccc(N(C)C)cc3)nn12 [Example 38, 5-n-butyl-2-[4-(N,N-dimethylamino)phenyl]-1,2,4-triazolo[1,5-c]quinazoline]
The melting point of the first is lower: 106 to 108 °C for the first, 148.5 to 150 °C for the second.

First: CCCCc1nc2ccccc2c2nc(-c3ccc(OCCC)cc3)nn12 [Example 36, 5-n-butyl-2-(4-propoxyphenyl)-1,2,4-triazolo[1,5-c]quinazoline]
Second: CCOc1ccc(-c2nc3c4ccccc4nc(CC)n3n2)cc1 [Example 72, 2-(4-ethoxyphenyl)-5-ethyl-1,2,4-triazolo[1,5-c]quinazoline]
The melting point of the first is lower: 128 to 129 °C for the first, 153 to 154 °C for the second.

First: CCCCc1nc2ccccc2c2nc(-c3cc(OC)c(OC)c(OC)c3)nn12 [Example 37, 5-n-butyl-2-(3,4,5-trimethoxyphenyl)-1,2,4-triazolo[1,5-c]quinazoline]
Second: CCCCc1nc2cc(OC)c(OC)cc2c2nc(-c3ccccc3)nn12 [Example 48, 5-n-butyl-8,9-dimethoxy-2-phenyl-1,2,4-triazolo[1,5-c]quinazoline]
The melting point of the first is lower: 130 to 133 °C for the first, 150 to 152 °C for the second.

Compared with `CCCCc1nc2ccccc2c2nc(-c3ccc([N+](=O)[O-])cc3)nn12` [Example 39, 5-n-butyl-2-(4-nitrophenyl)-1,2,4-triazolo[1,5-c]quinazoline], `CCCCc1nc2ccc([N+](=O)[O-])cc2c2nc(-c3ccccc3)nn12` [Example 85, 5-n-butyl-9-nitro-2-phenyl-1,2,4-triazolo[1,5-c]quinazoline] is higher in melting point: 194 to 195 °C for the first, 205.5 to 206 °C for the second.

First: CCCCc1nc2ccccc2c2nc(-c3cccnc3)nn12 [Example 40, 5-n-butyl-2-(3-pyridyl)-1,2,4-triazolo[1,5-c]quinazoline]
Second: CCCCc1nc2ccccc2c2nc(-c3cccs3)nn12 [Example 42, 5-n-butyl-2-(2-thienyl)-1,2,4-triazolo[1,5-c]quinazoline]
The melting point of the first is lower: 140 to 141.5 °C for the first, 147 to 149.5 °C for the second.

`CCCCc1nc2cccc(F)c2c2nc(-c3ccccc3)nn12` [Example 43, 5-n-butyl-10-fluoro-2-phenyl-1,2,4-triazolo[1,5-c]quinazoline] and `CCCCc1nc2cccc(C)c2c2nc(-c3ccccc3)nn12` [Example 49, 5-n-butyl-10-methyl-2-phenyl-1,2,4-triazolo[1,5-c]quinazoline] fall in the same range of melting point: 123 to 124 °C for the first, 123 to 124 °C for the second.

Compared with `CCCCc1nc2ccc(Br)cc2c2nc(-c3ccccc3)nn12` [Example 47, 9-bromo-5-n-butyl-2-phenyl-1,2,4-triazolo[1,5-c]quinazoline], `CCCc1nc2cc(Cl)ccc2c2nc(-c3ccccc3)nn12` [Example 79, 8-chloro-2-phenyl-5-n-propyl-1,2,4-triazolo[1,5-c]quinazoline] is higher in melting point: 129.5 to 132.5 °C for the first, 147 to 149 °C for the second.

First: CCCCc1nc2ccccc2c2nc(-c3ccc(SC)cc3)nn12 [Example 58, 5-n-butyl-2-(4-methylthiophenyl)-1,2,4-triazolo[1,5-c]quinazoline]
Second: CCc1nc2ccccc2c2nc(-c3ccc(F)cc3)nn12 [Example 67, 5-ethyl-2-(4-fluorophenyl)-1,2,4-triazolo[1,5-c]quinazoline]
The melting point of the first is lower: 140.5 to 141.5 °C for the first, 195 to 196 °C for the second.

`c1ccc(-c2nc3c4cnnc-4nc(-c4ccccc4)n3[nH]2)cc1` [Example 59, 2,5-diphenylpyrazolo[4,3-e]-1,2,4-triazolo[1,5-c]pyrimidine] and `CCc1nc2nncc-2c2nc(-c3ccc(OC)cc3)[nH]n12` [Example 63, 5-ethyl-2-(4-methoxyphenyl)pyrazolo[4,3-e]-1,2,4-triazolo[1,5-c]pyrimidine] cannot be ordered by melting point: 272.5 to 275 °C for the first, 274 to 277 °C for the second.

`CCc1nc2ccccc2c2nc(-c3ccc(Br)cc3)nn12` [Example 66, 2-(4-bromophenyl)-5-ethyl-1,2,4-triazolo[1,5-c]quinazoline] and `CCc1nc2ccccc2c2nc(-c3ccc(Cl)cc3)nn12` [Example 68, 2-(4-chlorophenyl)-5-ethyl-1,2,4-triazolo[1,5-c]quinazoline] fall in the same range of melting point: 197 to 198 °C for the first, 197 to 198 °C for the second.

First: CCc1nc2ccccc2c2nc(-c3ccc(C)cc3)nn12 [Example 69, 5-ethyl-2-(4-methylphenyl)-1,2,4-triazolo[1,5-c]quinazoline]
Second: CCc1nc2ccccc2c2nc(-c3ccc(OC)cc3)nn12 [Example 71, 5-ethyl-2-(4-methoxyphenyl)-1,2,4-triazolo[1,5-c]quinazoline]
The melting point of the first is lower: 147 to 148 °C for the first, 167.5 to 168 °C for the second.

First: CCCCc1nc2ccc(Cl)cc2c2nc(-c3ccc(F)cc3)nn12 [Example 74, 5-n-butyl-9-chloro-2-(4-fluorophenyl)-1,2,4-triazolo[1,5-c]quinazoline]
Second: CCCCc1nc2cc(Cl)ccc2c2nc(-c3ccc(F)cc3)nn12 [Example 80, 5-n-butyl-8-chloro-2-(4-fluorophenyl)-1,2,4-triazolo[1,5-c]quinazoline]
The melting point of the first is lower: 147.5 to 150 °C for the first, 185.5 to 186.5 °C for the second.

Compared with `CCCCc1nc2ccc(Cl)cc2c2nc(-c3ccc(C)cc3)nn12` [Example 77, 5-n-butyl-9-chloro-2-(4-methylphenyl)-1,2,4-triazolo[1,5-c]quinazoline], `CCCCc1nc2cc(Cl)ccc2c2nc(-c3ccc(C)cc3)nn12` [Example 83, 5-n-butyl-8-chloro-2-(4-methylphenyl)-1,2,4-triazolo[1,5-c]quinazoline] is lower in melting point: 141 to 143 °C for the first, 134 to 134.5 °C for the second.

With `CCc1nc2ccc(Cl)cc2c2nc(-c3ccc(Cl)cc3)nn12` [Example 86, 9-chloro-2-(4-chlorophenyl)-5-ethyl-1,2,4-triazolo[1,5-c]quinazoline] the melting point was 213 to 214 °C.

— US20040142952A1, “Triazoloquinazoline and pyrazolotriazolopyrimidine derivatives, medicinal compositions, adenosine a3 receptor affinity agents, ocular tension lowering agents, preparations for preventing and treating glaucoma and method of lowering ocular tension” (priority 2001, published 2004)
